Laboratory results reported in PubChem BioAssay (NCI).
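Dose response: 5 concentrations. Exposure: 48 h. Format: 96-well plates. Endpoint: linear interpolation; highest concentration if not reached. GI50 marks 50% less growth. The concentration for full growth arrest is given as TGI.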

What was measured:
Assay in all cases: inhibition of tumour cell growth, NCI panel, 48 h
SR leukemia = system: SR leukemia
MALME-3M melanoma = system: MALME-3M melanoma
NCI-H226 lung = system: NCI-H226 lung
HL-60(TB) leukemia = system: HL-60(TB) leukemia
CCRF-CEM leukemia = system: CCRF-CEM leukemia
SF-268 CNS = system: SF-268 CNS
COLO 205 colon = system: COLO 205 colon
CAKI-1 renal = system: CAKI-1 renal
SF-295 CNS = system: SF-295 CNS
DU-145 prostate = system: DU-145 prostate
HOP-62 NSCLC = system: HOP-62 NSCLC
MDA-MB-231 breast = system: MDA-MB-231 breast
HT29 colon = system: HT29 colon
MDA-MB-435 = system: MDA-MB-435
UO-31 renal = system: UO-31 renal
RXF 393 renal = system: RXF 393 renal
NCI-H460 lung = system: NCI-H460 lung
HOP-92 NSCLC = system: HOP-92 NSCLC
HCT-15 colon = system: HCT-15 colon
K-562 leukemia = system: K-562 leukemia
NCI-H522 lung = system: NCI-H522 lung
OVCAR-3 ovarian = system: OVCAR-3 ovarian
MOLT-4 leukemia = system: MOLT-4 leukemia
IGROV1 ovarian = system: IGROV1 ovarian
M14 melanoma = system: M14 melanoma
HCC-2998 colon = system: HCC-2998 colon
PC-3 prostate = system: PC-3 prostate
MCF7 breast = system: MCF7 breast
HS 578T breast = system: HS 578T breast
KM12 colon = system: KM12 colon
SK-MEL-5 melanoma = system: SK-MEL-5 melanoma
SK-OV-3 ovarian = system: SK-OV-3 ovarian
RPMI-8226 leukemia = system: RPMI-8226 leukemia
TK-10 renal = system: TK-10 renal
LOX IMVI melanoma = system: LOX IMVI melanoma
SF-539 CNS = system: SF-539 CNS
A549 NSCLC = system: A549 NSCLC
SN12C renal = system: SN12C renal
UACC-62 melanoma = system: UACC-62 melanoma
HCT-116 colon = system: HCT-116 colon
SNB-19 CNS = system: SNB-19 CNS
ACHN renal = system: ACHN renal
NCI/ADR-RES ovarian = system: NCI/ADR-RES ovarian
OVCAR-4 ovarian = system: OVCAR-4 ovarian
OVCAR-8 ovarian = system: OVCAR-8 ovarian
OVCAR-5 ovarian = system: OVCAR-5 ovarian
NCI-H23 lung = system: NCI-H23 lung
A498 renal = system: A498 renal
UACC-257 melanoma = system: UACC-257 melanoma
786-0 renal = system: 786-0 renal
SW-620 colon = system: SW-620 colon
U251 CNS = system: U251 CNS
BT-549 breast = system: BT-549 breast

`N#CC1=C(N)Oc2c(ccc3ccccc23)C1c1cccs1` (stereo unspecified) was tested, and the GI50 (SR leukemia) was 33.7 nM, the TGI (SR leukemia) was 7810 nM and the GI50 (MALME-3M melanoma) was 38 nM. For the same molecule, the TGI (MALME-3M melanoma) was 24300 nM, the GI50 (NCI-H226 lung) was 1060 nM and the TGI (NCI-H226 lung) was 19000 nM. It also gave a GI50 (HL-60(TB) leukemia) of 28.3 nM, a TGI (HL-60(TB) leukemia) of 79.3 nM and a GI50 (CCRF-CEM leukemia) of 33.7 nM. The TGI (CCRF-CEM leukemia) was 11400 nM, the GI50 (SF-268 CNS) was 80.7 nM and the TGI (SF-268 CNS) was 10100 nM. For the same molecule, the GI50 (COLO 205 colon) was 71.6 nM, the TGI (COLO 205 colon) was 591 nM and the GI50 (CAKI-1 renal) was 46.5 nM. The TGI (CAKI-1 renal) was 16100 nM, the GI50 (SF-295 CNS) was 51.1 nM and the TGI (SF-295 CNS) was 17000 nM. For the same molecule, the GI50 (DU-145 prostate) was 46.3 nM, the TGI (DU-145 prostate) was 1030 nM and the GI50 (HOP-62 NSCLC) was 58.3 nM. For the same molecule, the TGI (HOP-62 NSCLC) was 18500 nM, the GI50 (MDA-MB-231 breast) was 140 nM and the TGI (MDA-MB-231 breast) was 2720 nM. The GI50 (HT29 colon) was 53.6 nM, the TGI (HT29 colon) was 1120 nM and the GI50 (MDA-MB-435) was 16.8 nM. It also gave a TGI (MDA-MB-435) of 42 nM, a GI50 (UO-31 renal) of 69.6 nM and a TGI (UO-31 renal) of 17500 nM. For the same molecule, the GI50 (RXF 393 renal) was 31.3 nM, the TGI (RXF 393 renal) was 21800 nM and the GI50 (NCI-H460 lung) was 36 nM. The TGI (NCI-H460 lung) was 662 nM, the GI50 (HOP-92 NSCLC) was 57.3 nM and the TGI (HOP-92 NSCLC) was 14100 nM. The GI50 (HCT-15 colon) was 44.2 nM, the TGI (HCT-15 colon) was 10900 nM and the GI50 (K-562 leukemia) was 32.1 nM. It also gave a TGI (K-562 leukemia) of 12000 nM, a GI50 (NCI-H522 lung) of 18.5 nM and a TGI (NCI-H522 lung) of 84.6 nM. For the same molecule, the GI50 (OVCAR-3 ovarian) was 26.9 nM, the TGI (OVCAR-3 ovarian) was 70.4 nM and the GI50 (MOLT-4 leukemia) was 59.4 nM. It also gave a TGI (MOLT-4 leukemia) of 14600 nM, a GI50 (IGROV1 ovarian) of 82.5 nM and a TGI (IGROV1 ovarian) of 15800 nM. For the same molecule, the GI50 (M14 melanoma) was 40.5 nM, the TGI (M14 melanoma) was 11900 nM and the GI50 (HCC-2998 colon) was 132 nM. The TGI (HCC-2998 colon) was 3890 nM, the GI50 (PC-3 prostate) was 41 nM and the TGI (PC-3 prostate) was 15000 nM. The GI50 (MCF7 breast) was 35.4 nM, the TGI (MCF7 breast) was 13900 nM and the GI50 (HS 578T breast) was 30.2 nM. The TGI (HS 578T breast) was 14100 nM, the GI50 (KM12 colon) was 43.4 nM and the TGI (KM12 colon) was 3450 nM. The GI50 (SK-MEL-5 melanoma) was 42.7 nM, the TGI (SK-MEL-5 melanoma) was 5200 nM and the GI50 (SK-OV-3 ovarian) was 56.5 nM. It also gave a TGI (SK-OV-3 ovarian) of 14700 nM, a GI50 (RPMI-8226 leukemia) of 32.9 nM and a TGI (RPMI-8226 leukemia) of 3600 nM. It also gave a GI50 (TK-10 renal) of 66.9 nM, a TGI (TK-10 renal) of 20200 nM and a GI50 (LOX IMVI melanoma) of 79.8 nM. The TGI (LOX IMVI melanoma) was 14000 nM, the GI50 (SF-539 CNS) was 26 nM and the TGI (SF-539 CNS) was 69.6 nM. The GI50 (A549 NSCLC) was 61.5 nM, the TGI (A549 NSCLC) was 14000 nM and the GI50 (SN12C renal) was 81.6 nM. The TGI (SN12C renal) was 12900 nM, the GI50 (UACC-62 melanoma) was 64.7 nM and the TGI (UACC-62 melanoma) was 15200 nM. The GI50 (HCT-116 colon) was 50.2 nM, the TGI (HCT-116 colon) was 1830 nM and the GI50 (SNB-19 CNS) was 321 nM. For the same molecule, the TGI (SNB-19 CNS) was 20700 nM, the GI50 (ACHN renal) was 84 nM and the TGI (ACHN renal) was 14800 nM. It also gave a GI50 (NCI/ADR-RES ovarian) of 36.8 nM, a TGI (NCI/ADR-RES ovarian) of 6070 nM and a GI50 (OVCAR-4 ovarian) of 430 nM. The TGI (OVCAR-4 ovarian) was 18700 nM, the GI50 (OVCAR-8 ovarian) was 55 nM and the TGI (OVCAR-8 ovarian) was 12100 nM. It also gave a GI50 (OVCAR-5 ovarian) of 129 nM, a TGI (OVCAR-5 ovarian) of 16500 nM and a GI50 (NCI-H23 lung) of 62.8 nM. For the same molecule, the TGI (NCI-H23 lung) was 12700 nM, the GI50 (A498 renal) was 23.2 nM and the TGI (A498 renal) was 84.3 nM. For the same molecule, the GI50 (UACC-257 melanoma) was 51.4 nM, the TGI (UACC-257 melanoma) was 22200 nM and the GI50 (786-0 renal) was 57.7 nM. The TGI (786-0 renal) was 11500 nM, the GI50 (SW-620 colon) was 36.6 nM and the TGI (SW-620 colon) was 15200 nM. For the same molecule, the GI50 (U251 CNS) was 40.7 nM, the TGI (U251 CNS) was 11300 nM and the GI50 (BT-549 breast) was 68.8 nM. It also gave a TGI (BT-549 breast) of 3090 nM.
